US12351574B2, “Selective ligands for modulation of GIRK channels” (Northeastern University, priority 2018, dated 2025)

Columns and labels:
[1] = test system: right atrium of isolated Langendorff-perfused mouse heart; experiment: optical mapping of atrial action potential duration in isolated Langendorff-perfused mouse heart; details: for atrial optical action potential duration 70% repolarization (APD70), quantification: 2.4 μM, 10 Hz stimulation, FIGS. 23A-23B, controls 23.93 (ML297) and 23.1 (GAT1508); for average APD70 of the map of the stimulated right atrium: 10 minutes after 2.4 μM, 10 Hz, FIG. 22, controls 23.9 (ML297) and 21.8 (GAT1508)
Experimental: Optical mapping studies in isolated hearts: Isolated hearts of C57BL/6 mice, four to six months of age, were retrogradely perfused with Tyrode's solution in the Langendorff mode. The preparations were maintained at 37° C., and stained with a bolus of a voltage sensitive dye (0.25 ml, 10 μM Di-4-ANEPPS, Molecular Probes) and imaged with a CCD camera (RedShirt Imaging), 80×80 pixels, 85 μm per pixel, and 1000 frames per second. […] A bipolar, silver tip stimulation electrode was used to pace the right atrium (2.5 5 ms pulses, 2× diastolic threshold) at 10 Hz using an AD Instrument stimulation platform. ML297 or GAT1508 at 2.4 μM were introduced into the perfusate. The action potential duration at 70% repolarization (APD70), was quantified as the inventors have done extensively.

GIRK1/4 = biological target: T1, GIRK1/4 (Homo sapiens, UniProt P48544+P48549); experiment: two-electrode voltage clamp (TEVC) in Xenopus oocytes expressing GIRK1/4 wild-type; format: cell-based; set-up: expressed in transfected cells; host or cells: Xenopus laevis oocytes (cRNA injection)
T1 sequence (P48549 1-501): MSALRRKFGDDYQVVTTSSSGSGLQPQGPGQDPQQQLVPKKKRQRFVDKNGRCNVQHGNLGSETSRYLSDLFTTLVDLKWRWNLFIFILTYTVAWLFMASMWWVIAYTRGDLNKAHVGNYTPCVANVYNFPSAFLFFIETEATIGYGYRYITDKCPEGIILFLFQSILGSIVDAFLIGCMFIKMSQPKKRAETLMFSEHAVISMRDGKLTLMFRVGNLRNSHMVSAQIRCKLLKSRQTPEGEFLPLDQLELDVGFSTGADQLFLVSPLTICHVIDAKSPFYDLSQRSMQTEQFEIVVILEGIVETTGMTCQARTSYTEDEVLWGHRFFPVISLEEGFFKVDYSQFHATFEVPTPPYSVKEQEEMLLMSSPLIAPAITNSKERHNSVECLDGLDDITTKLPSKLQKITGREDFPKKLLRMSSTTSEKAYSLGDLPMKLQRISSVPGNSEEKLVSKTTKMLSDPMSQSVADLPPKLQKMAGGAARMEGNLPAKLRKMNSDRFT
T1 sequence (P48544 1-419): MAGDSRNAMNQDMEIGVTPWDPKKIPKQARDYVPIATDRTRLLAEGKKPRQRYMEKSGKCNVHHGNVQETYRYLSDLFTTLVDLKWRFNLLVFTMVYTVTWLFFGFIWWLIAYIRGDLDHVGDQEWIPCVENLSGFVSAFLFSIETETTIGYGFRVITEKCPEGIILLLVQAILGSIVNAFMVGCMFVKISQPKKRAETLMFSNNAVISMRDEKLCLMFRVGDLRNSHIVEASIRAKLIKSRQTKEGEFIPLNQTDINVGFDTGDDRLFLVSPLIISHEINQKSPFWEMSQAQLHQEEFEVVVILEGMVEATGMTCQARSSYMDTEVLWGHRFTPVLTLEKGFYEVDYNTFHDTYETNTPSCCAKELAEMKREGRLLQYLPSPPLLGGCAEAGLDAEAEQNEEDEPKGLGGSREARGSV
Description: Molecular biology: For Xenopus oocyte expression, human GIRK1 and human GIRK4 cDNAs were subcloned into pGEMHE. For mammalian expression, human GIRK1 and human GIRK4 cDNAs were subcloned into pcDNA3 and pcDNA3.1/V5-His B, respectively (Invitrogen). Mouse GIRK2 cDNA was subcloned in the dual-function vector, pXoom. Point mutations were introduced using a standard Pfu-based mutagenesis technique according to the QuikChange protocol (Agilent). Mutations were verified by sequencing.
Xenopus laevis oocyte expression: Plasmid DNAs of GIRK channel subunits were linearized prior to in vitro transcription. Capped RNAs were transcribed using mMESSAGE mMACHINE T7 Transcription Kit (Thermo Fisher Scientific). Xenopus oocytes were surgically extracted, dissociated and defolliculated by collagenase treatment, and microinjected with 50 nl of a water solution containing 1 ng of each GIRK subunit RNA. For TEVC experiments, oocytes were kept 2 days at 17° C. before recording, while for NPo experiments oocytes were incubated for up to 4 days at 17° C.
Xenopus laevis oocyte expression: All cDNA constructs in the pGEMHE vector were linearized using the NheI restriction enzyme, whereas those in the pXoom vector were linearized using the XhoI restriction enzyme. Linearized cDNAs were in vitro-transcribed using the mMessage mMachine® kit (Ambion) kit. Complementary RNA (cRNA) concentrations were quantified by optical density. Xenopus oocytes were surgically extracted, dissociated, and defolliculated by collagenase treatment and microinjected with 50 nl of the desired cRNAs diluted in RNAase-free water. The use of Xenopus laevis frogs for this study was approved by the Institutional Animal Care and Use Committee (IACUC) at Northeastern University. All constructs used in this study were injected to achieve between 1-2 ng per oocyte depending on the channel. Oocytes were incubated for 2 days at 18° C.
Electrophysiology of oocytes: Whole-oocyte currents were measured by conventional two-electrode voltage clamp (TEVC) with a GeneClamp 500 amplifier (Axon Instruments). […] Barium-sensitive currents were normalized to average basal current in the vehicle solutions. The HK solution contained the following: 96 mM KCl, 1 mM NaCl, 1 mM MgCl2, 5 mM KOH/HEPES, pH 7.4. The barium solution consisted of HK+10 mM BaCl2. Five to ten oocytes from the same batch (same frog) were recorded for each group, and the experiments were repeated in at least four batches. Data acquisition and analysis were carried out using pClamp9 (Molecular Devices) and OriginPro (Microcal) software.

atrial optical action potential duration 70% repolarization (APD70), quantification [1] | average APD70 of the map of the stimulated right atrium [1] | GAT1508-induced potassium current, GIRK1/4 (in words) (GIRK1/4; 10 μM, 10 mM K+, holding potential −100 mV) | GAT1508-induced thallium current, GIRK1/4 (in words) (GIRK1/4; 10 μM, 10 mM thallium, holding potential −100 mV) | compound-induced current normalized to the basal current, GIRK1+GIRK4 (GIRK1/4; 10 μM, High Potassium (HK) solution, FIG. 31) | EMAX at GIRK1/4, % relative to ML297 (GIRK1/4; ML297 considered 100%) | EC50 (GIRK1/4; TEVC, Xenopus oocytes, GIRK1/4 wild-type) | EMAX at GIRK1/4 (GIRK1/4; current normalized to basal current) | Structure (SMILES)
23.57 ms | 20.3 ms | not | induced current increases |  |  |  |  | Cc1cc(NC(=O)Nc2ccc(Br)s2)n(-c2ccccc2)n1 [GAT1508, 1-(5-bromothiophen-2-yl)-3-(3-methyl-1-phenyl-1H-pyrazol-5-yl)urea]
16.53 ms | 16 ms |  |  | ~1.75 | 100% | 500 ± 260 nM | 1.60±0.07 | Cc1cc(NC(=O)Nc2ccc(F)c(F)c2)n(-c2ccccc2)n1 [ML297, reference compound]
